# Results published in patent publication US10011813B2, “Methane oxidation methods and compositions” (California Institute of Technology, priority 2015, dated 2018).
# Test system: ANME-SRB consortia
# Assay: FISH-nanoSIMS 15N incorporation (anabolic activity) of ANME-SRB consortia
# Assay type: cell-based, ANME-2c archaea and Desulfobacteraceae
# Experimental: Incubations for FISH-nanoSIMS and RNA analysis. For AOM incubations with sulfate or AQDS that were used for nanoSIMS (FIG. 7 and FIG. 8A) and RNA analysis (FIG. 6), incubations experiments were set up following the AOM-rate measurements described above (initially containing 1.0 mM ammonium without ^15N label). Methane oxidation rates were tracked in these incubations via the ^13C label. After 11 days, ca. 3.5 mL of supernatant remained in the serum bottles to which 3.0 mL artificial seawater without ammonium containing either 25 mM AQDS, 28 mM sulfate, or no oxidant or electron acceptor was added. Next, 0.1 mL ^15NH4^+ (100 mM) was injected to yield about 2.0 mM ammonium with ca. 75% ^15N. Methane oxidation was monitored. After additional 8 days, the medium of the AQDS incubations was exchanged by 5.0 mL new medium containing 25 mM AQDS and 2.0 mM ^15NH4^+. Now the AQDS incubations contained ca. 95% ^15NH4^+ in the ammonium pool. The cultures were incubated for additional 10 days before harvest. Total incubation time with labeled ammonium: 18 days. Average labeling strength: ca. 75% for sulfate and no oxidant or electron acceptor control; ca. 86% for the AQDS incubations.
# For the second independent set of experiments with iron citrate, humic acids and sulfate (FIG. 8B), the medium contained 1.0 mM ammonium with ca. 40% ^15N label throughout the incubation period. These experiments were carried out from identical incubations that were for the AOM rate measurements (highlighted in Table 4). In regards to Table 4, the percentage AOM rates are reported relative to sulfate-coupled AOM (1.50 μmol cm^−3 day^−1). Top: Summary of compounds described in FIG. 1B; Bottom: Oxidants or electron acceptors resulting in an AOM rate less than 0.10 μmol […] day^−1 (<7% rel. to sulfate as oxidant or electron acceptor).
# Sampling for FISH-nanoSIMS and RNA. After an 18-day incubation in the presence of ^15NH4^+, each incubation was shaken to suspend the sediment and 1.0 mL sediment slurry was sampled using a disposable sterile needle and syringe (ca. 0.3 mL wet sediment). […]
# Sample preparation for aggregate embedding, sectioning, FISH, and nanoSIMS. […] Sections of ca. 1 μm thickness were cut and stretched on a water droplet on a polylysine coated slide with teflon wells (Tekdon Inc) and analyzed by fluorescence in situ hybridization (FISH). […]
# FISH conditions and probes. The FISH hybridization on thin sections of resin embedded microbial aggregates followed the recently optimized protocol described in S. E. McGlynn et al. The phylogenetic identity of microorganisms in the thin sections were determined using conventional FISH using oligonucleotide probes fluorescently labeled on both the 5′ and 3′ ends (dual labeled) as outlined herein. […]
smiles,measurement,setting,value
"O=C1c2ccc(S(=O)(=O)O)cc2C(=O)c2ccc(S(=O)(=O)O)cc21 [AQDS, 9,10-anthraquinone-2,6-disulfonate]",doubling time of ANME cells based on average 15N-incorporation,18 days with 15NH4+,3.3 months
same,anabolic activity within ANME-SRB consortia,sulfate-free incubations,occurred only in the ANME archaea
